This note sets out measurements from patent publication US20230113802A1, “COMPOSITION AND METHOD TO PREPARE LONG-ACTING INJECTABLE SUSPENSION CONTAINING MULTIPLE CANCER DRUGS” (University of Washington, priority 2020, published 2023).

Structures are written as SMILES.

Data set [1] can be described thus: Pharmacokinetics of venetoclax-zanubrutinib DcNP's versus free drug in mice. It is filed as in vivo, BALB/C mice. The note with it: for AUC: female, BALB/C, mouse, plasma; for time detectable in plasma: following administration of the nanoparticles. An excerpt: To quantify drug concentrations (both DcNP-bound and free drug), an extraction protocol was established to quantify venetoclax and zanubrutinib. In short, drug was solubilized by diluting the sample into ethyl acetate, liberating it from either the DcNP lipid matrix, mouse plasma, or both. Following centrifugation to remove organic material, the samples were dried with nitrogen gas, reconstituted in acetonitrile, and loaded onto an LC-MS/MS. Drug concentrations were quantified by comparing sample data with standard curves prepared from untreated mouse plasma spiked with known amounts of drug.
Separations were carried out on a Synergi column (100×2.0 mm) (Phenomenex, Torrance, USA). A C8 guard column (4.0×2.0 mm) was used (Phenomenex, USA). The separations were done under ambient temperature, and the flow rate was set to 0.55 ml/min. The mobile phase for the separations consisted of buffers A (water with 20 mM ammonium acetate) and B (acetonitrile). The single mobile phase ran for five minutes, and it consisted of 25% buffer A and 75% buffer B.
All animal procedures complied with and were approved by the University of Washington Institutional Animal Care and Use Committee. Female BALB/C mice were used, originally obtained from Charles River Laboratories (Wilmington, Mass.). Mice were kept under pathogen-free conditions, exposed to a 12 h light/dark cycle, and received food ad libitum. Three groups of three mice each were administered ABT-199 and BGB-3111: (1) the first group received a 180 μL intravenous injection of 600 μg ABT-199 and 600 μg BGB-3111 in 0.9% NaCl, 20 mM NaHCO3 buffer with trace DMSO and Cremophor EL as solubilizing agents, (2) the second group received an intravenous injection of ABT-199 and BGB-3111 DcNP's in equivalent volume and drug molar concentration as the first group, and (3) the third group received a subcutaneous injection of ABT-199 and BGB-3111 DcNP's in the inner right leg. Plasma was collected at select time points, then extracted and analyzed by HPLC-MS/MS using the previously established protocol to determine plasma concentrations of drug over time.

Data set [2] is described as follows: Association efficiency of venetoclax and zanubrutinib with DcNP's by dialysis. The data set is classed as physicochemical. On the procedure: 85.4 mg DSPC, 33.6 mg DSPE-mPEG2000, 9.6 mg ABT-199, and 9.6 mg BGB-3111 were dissolved in 4 mL pre-warmed 70° C. tert-butyl alcohol. The solution was thoroughly mixed, lyophilized over 24 hrs, and reconstituted in 0.9% NaCl, 20 mM NaHCO3 buffer with trace TWEEN® 20. The resulting drug-combination, stabilized by lipid excipients and referred to as drug combination nanoparticle or DcNP's, were then filtered through an Acrodisc® CR syringe filter (0.2 μm PTFE Membrane, HPLC certified) and diluted with buffer solution to the desired concentration. Particle size was quantified using a NICOMP 380 ZLS (Zeta Potential/Particle Sizer). The extent of ABT-199 and BGB-3111 association with the DcNP particles in solution was analyzed via dialysis (6,000-8,000 molecular weight cutoff) under sink conditions; sink condition was achieved by dialyzing 200 μl of DcNP suspension against 200 mL buffer solution (1,000-fold volume change) for 4 hrs. The drug association efficiency (AE %) was determined by comparing the pre- and post-dialysis drug concentration ratios of each drug. Drug concentration was determined by the extraction drug in suspension and analyzed based on a LC-MS/MS assay as described below.
Following initial rehydration and without any sonication, particle size of the DcNP's with and without TWEEN20 was measured using the Zetasizer (FIG. 10). […] Without Tween20, DcNP size was primarily 39 nm in diameter (92%) with less than 8% of particles measuring 870 nm in diameter (FIG. 10). Particle size was determined via dynamic light scattering, and association efficiency (FIG. 11) is a normalized mass/mass ratio calculated by comparing amount of drug remaining associated with DcNP's compared to the overall amount of drug used to create the particles.

Setting [3] is: iv, 600 ug, intravenous free drug injection (600 μg each drug).
Setting [4] is: iv, 600 ug, intravenously administered DcNP's.
The mark [5] stands for this setting: sc, subcutaneous injection of DcNP's, plasma over one week.

Regarding `CC1(C)CCC(CN2CCN(c3ccc(C(=O)NS(=O)(=O)c4ccc(NCC5CCOCC5)c([N+](=O)[O-])c4)c(Oc4cnc5[nH]ccc5c4)c3)CC2)=C(c2ccc(Cl)cc2)C1` [Venetoclax, 4-[4-[[2-(4-chlorophenyl)-4,4-dimethylcyclohexen-1-yl]methyl]piperazin-1-yl]-N-[3-nitro-4-(oxan-4-ylmethylamino)phenyl]sulfonyl-2-(1H-pyrrolo[2,3-b]pyridin-5-yloxy)benzamide], in data set [1], the “AUC of subcutaneous DcNP's compared to intravenously delivered free drug (ratio)” value is reported as “over 2.62”. The AUC (as a rule, the area under the concentration-time curve, a measure of exposure) was 88800 ng·h/mL in data set [1] (setting [3]), 216000 ng·h/mL in data set [1] (setting [4]) and 232000 ng·h/mL in data set [1] (setting [5]). Further, the “time detectable in plasma” value in data set [1] is “up to seven days”. Further, the “AE % (association efficiency with the DcNP lipid platform)” value in data set [2] (with TWEEN20, day 1) turned out to be 100%; in data set [2] (with TWEEN20, day 70) it was 99.91%; in data set [2] (without TWEEN20, day 1) it was 100%; in data set [2] (without TWEEN20, day 70), 100%.

Turning to `C=CC(=O)N1CCC([C@@H]2CCNc3c(C(N)=O)c(-c4ccc(Oc5ccccc5)cc4)nn32)CC1` [Zanubrutinib, (7S)-2-(4-phenoxyphenyl)-7-(1-prop-2-enoylpiperidin-4-yl)-4,5,6,7-tetrahydropyrazolo[1,5-a]pyrimidine-3-carboxamide], the “AUC of subcutaneous DcNP's compared to intravenously delivered free drug (ratio)” value in data set [1] is over 5.92. For the same compound, the area under the curve (AUC) in data set [1] (setting [3]) was found to be 8300 ng·h/mL; in data set [1] (setting [4]), 11300 ng·h/mL; in data set [1] (setting [5]), 49000 ng·h/mL. Also, the “time detectable in plasma” value in data set [1] is “less than one day”. In addition, the “AE % (association efficiency with the DcNP lipid platform)” value in data set [2] (with TWEEN20, day 1) worked out at 98.52%; in data set [2] (with TWEEN20, day 70), 93.05%; in data set [2] (without TWEEN20, day 1), 99.99%; in data set [2] (without TWEEN20, day 70) it was 95.50%.
